These results are taken from patent US20240238299A1, “USE OF PYRROLOPYRIMIDINE COMPOUND” (GUANGZHOU JOYO PHARMATECH CO., LTD, priority 2021, published 2024).

Structures are written as SMILES.

Assay [1] has as its system STAT3 phosphorylation (p-STAT3/STAT3) in spinal cord. The assay is described as follows: EAE mouse model, STAT3 phosphorylation in spinal cord (Western blot). The following applies: for inhibition rate of STAT3 phosphorylation in spinal cord: day 28. In kind it is in vivo, C57BL/6 mice. For orientation: A western blot detects proteins with antibodies after separation by electrophoresis.

The subject of assay [2] is IL-2-induced pSTAT5 in hPBMC. The assay is described as follows: IL-2-induced pSTAT5 in hPBMC (flow cytometry, CD4 positive cells). The class given is cell-based. The conditions noted are these: Homo sapiens, 4 ng/mL IL-2, CD4 positive cells. The procedure:
• 1) Preparation of culture medium: 1640 medium+10% fetal bovine serum+1% penicillin/streptomycin+1% non-essential amino acids (all percentages were v/v) • 2) Cells were thawed in a 37° C. water bath and then centrifuged. The cell concentration was adjusted to 5×10^5 cells/mL using the prepared culture medium. • 3) Cell suspension was seeded into a 96-well round-bottom plate at 200 μL/well and incubated at 37° C. for 90 minutes. • 4) Drugs were added, followed by a 37° C. incubation for 30 minutes. • 5) Cells were then stimulated by adding 10 ng/mL of IL-6 or 4 ng/mL of IL-2, followed by a 37° C. incubation for 15 minutes.
• 1) After completing the stimulation, cells were centrifuged and washed once with staining buffer (DPBS+2% bovine serum albumin). Antibodies were then added for a 30-minute staining process at 4° C. […]
• 1) Response %=[(MFI value of drug-treated well−mean MFI value of control well)/(mean MFI value of DMSO well−mean MFI value of control well)]*100% was calculated. • 2) The calculated Response % values were input into GraphPad Prism 8 software. […]
A general note: In flow cytometry, cells or beads pass a laser one at a time.

The test system of assay [3] is IL-6 secretion by astrocytes. In words: IL-6 release caused by NMO-IgG in astrocytes (ELISA). The class given is cell-based, rat. The conditions noted are these: Rattus norvegicus, Astrocyte, 24 h, NMO-IgG 250 μg/mL, read-out: IL-6 inhibition rate, Mean. Here is the method:
The compound was dissolved in DMSO to prepare a compound stock solution. The compound stock solution was then serially diluted in a gradient using DMSO to prepare a series of 1000× test compound solutions. These 1000× test compound solutions were further diluted at a ratio of 1:100 with cell culture medium to prepare a series of 10× test compound solutions. Finally, according to the experimental well plate loading design, a corresponding volume of 10× solution was added to each well, with two duplicate wells for each drug concentration. In the experiment, the test solution (i.e., 1× solution) had varying final concentrations of compound I, specifically 20, 2.222, 0.247, and 0.027 μM; the concentration of Meprednisone compound (i.e., 1× solution) was 30 μM; the concentration of BAY 11-7082 (i.e., 1× solution) was 5 μM; the final DMSO concentration in each well was 0.1%. DMSO without compound was added to blank control wells, with a final concentration of 0.1%.
1) Extraction and separation of primary astrocytes: A mixed glial cell culture medium was prepared from the cerebral cortex of 1-day-old newborn rats. After euthanizing the newborn rats, they were immersed in alcohol. Their skin was cut, the brains were removed, and the cerebral cortex was isolated. The tissues were then ground to remove the connective tissue, and the mixed glial cells were sieved through a 70 µm cell strainer. These cells were then seeded into a cell culture plate coated with poly-L-lysine. The culture medium was DMEM, containing 10% heat-inactivated fetal bovine serum, 100 U/mL penicillin, and […]. After about 12 days of in vitro culture, the cells reached confluence. Microglia, endothelial cells, and oligodendrocytes were removed from the mixed glial cells by vibratory shaking. […] 2) Culture of astrocytes: The isolated astrocytes were cultured in a 37° C., 5% CO2 incubator. The culture medium was changed every 3 to 4 days. The astrocytes could also be digested using trypsin (0.25%) and then frozen in liquid nitrogen for future use.
Human NMO-IgG was isolated from a sterile-filtered serum pool (AQP4-IgG-positive NMOSD) using a HiTrap Protein G-HP column (GE Healthcare). The serum samples were diluted at a ratio of 1:1 with binding buffer, and after packing the purification column with binding buffer, the serum sample was added. The column was subsequently washed with binding buffer again and the antibodies were eluted according to the instructions. Finally, the antibodies were concentrated on an Amicon Ultra-4 centrifugal filter (millipore) with a 10,000 MW cutoff. The concentrated immunoglobulin was filtered through a 0.22 µm filter. The protein concentration of the concentrate was determined using the BCA method and stored at −80° C. The total IgG extracted from the serum of NMOSD patients was NMO-IgG (containing AQP4-IgG), and the cells were stimulated at a protein concentration of 250 μg/mL during the experiment.
Astrocytes were cultured or revived until day 2 and then seeded into a 24-well plate at a density of 1.5×10^5 cells per well. The test compounds, including compound I, Meprednisone, and BAY11-7082, were pre-incubated with the cells for 30 minutes at the concentrations previously described. Subsequently, in each group, the cells continued to be stimulated with NMO-IgG at a final working concentration of 250 μg/mL for 24 hours to induce astrocyte damage. Normal human Control-IgG (CON-IgG) stimulation at a final working concentration of 250 μg/mL was used as a negative control.
After 24 hours of NMO-IgG stimulation of cells, the supernatant was collected. IL-6 levels were detected using an enzyme-linked immunosorbent assay (ELISA) following the instructions of the IL-6 ELISA kit (R&D Systems, USA, #RD6000B). The absorbance (OD values) of the samples in each group was measured, and the concentration of IL-6 in each experimental group was calculated through standard curve fitting. […]
Background: In an ELISA, binding on a coated surface is turned into a signal by an enzyme label.

A word on the IC50: it is the concentration that gives 50% inhibition. A word on the inhibition: it is the drop in the measured response relative to a control, in per cent. Consider `CN(c1ncnc2[nH]ccc12)[C@@H]1CCc2cc(C#N)nn2C1` [Compound I], for which the “inhibition rate of STAT3 phosphorylation in spinal cord” value in assay [1] (10 mg/kg BID) and in assay [1] (20 mg/kg BID) was 86% in each case. For the same molecule, the “STAT3 phosphorylation in spinal cord” value in assay [1] (all dose groups, day 28, 0.25 h after administration) was “significantly inhibited the level of STAT3 phosphorylation in spinal cord”. In addition, the IC50 in assay [2] came to 36.3 nM. For the same molecule, the inhibition at 0.027 µM in assay [3] (0.027 μM) amounted to 30.4%. The inhibition at 0.247 µM in assay [3] (0.247 μM) worked out at 54%. In assay [3] (2.222 μM), the inhibition at 2.222 µM was found to be 94.3%. For the same molecule, the inhibition at 20 µM in assay [3] (20 μM) was approximately 98.8%.
